# Reference: patent publication US20120208776A1 (priority 2002, published 2012)
# Read-outs that look alike come from different tables or passages of the source.
# How the values were obtained:
# [1] = tested on: rat liver mRNAs; type: in vivo, Sprague-Dawley rats; conditions: 35.7 mg/kg
# Description: Total RNA was isolated using Trizol (Invitrogen, CA), and purified with the RNeasy Kit (Qiagen, CA). mRNA sequences were obtained from the public GeneBank database (www.ncbi.nlm.nih.gov), and primers were designed using Primer3 software from The Massachusetts Institute of Technology (frodo.wi.mit.edu/cgi-bin/primer3/primer3_www.cgi).
# [2] = tested on: cyclin D1 and p21 mRNA in MDA-MB-453 cells; assay: RT-PCR of mRNA; type: cell-based, human
# Method: (§1) MDA-MB-453 cells were treated with DMSO or actein for 3, 10, or 24 h. RNA was isolated and analyzed by RT-PCR, using primers for cyclin D1 and actin (control). The staining intensities of the visualized blots were quantified using NIH image software. The relative band intensities were determined by comparing treated samples with untreated controls. These values were then normalized (fold), using actin as an internal control.
# as §1, with “using β-actin” for “using actin”
# [3] = tested on: MDA-MB-453 cells; assay: Combination of agents, MTT assay, combination index
# Method: Calculating the Combination Index. To determine the Combination Index (CI), 1) the Na^+-K^+-ATPase enzyme or 2) MDA-MB-453 cells were exposed to all combinations of 3, 4 or 5 concentrations of each of the agents tested and a solvent control. […] The results of the enzymatic assay of ATPase or MTT assay were analyzed for possible synergistic effects using the median effect principle. Variable ratios of drugs were employed and mutually exclusive equations were assumed.
# Calculating the Combination Index.
# The simvastatin was obtained from Sigma of St. Louis, Mo. The concentrations tested in the present example were 0, 0.2, 2, 5, and 20 μg/ml actein and 0, 0.8, 4, 20 and 40 μg/ml simvastatin.
# [4] = tested on: cyclin D1 promoter; assay: Cyclin D1 reporter assay (luciferase); type: cell-based, human; conditions: MDA-MB-453, 24 h
# Method: The cyclin D1 promoter luciferase reporter plasmid, 1745CD1LUC, was prepared by Dr. R. Pestell (Albert Einstein Cancer Center, New York, N.Y.). The method used for transient transfection reporter assays was previously described (Soh et al., Novel roles of specific isoforms of protein kinase C in activation of the c-fos serum response element. Molecular and Cellular Biology, 19:1313-24, 1999). Using lipofectin, triplicate samples of MDA-MB-453 breast cancer cells (1×10^5 cells in 35-mm plates) were co-transfected using DNA of the indicated reporter plasmid (1 μg) and the β-gal plasmid as an internal control (10 μg of the pCMV-b-gal plasmid) in opti-MEM 1 medium (Life Technologies, Inc.). After 24 h, the medium was replaced with serum-free medium containing the indicated concentrations of actein. After 24 h, cells were harvested, and luciferase activity was determined with the luciferase assay system (Promega Corp. Madison, Wis.); β-gal activities were determined with the β-gal enzyme assay system (Promega). Luciferase activities were normalized to β-gal activities, to correct for differences in transfection efficiency.
# [5] = tested on: cyclin D1 and p21 mRNA in MDA-MB-453 cells; assay: RT-PCR of mRNA; type: cell-based, human; remark: listed apart in the source
# [6] = tested on: rat liver gene expression; assay: AffyLimma microarray analysis of rat liver, actein; type: in vivo, Sprague-Dawley rats; conditions: for number of genes significantly altered (B>0): actein; for Fold-change relative to control, BZRP, Microarray / Fold-change relative to control, CCND1, Microarray / Fold-change relative to control, CYP7A1, Microarray / Fold-change relative to control, HMGCR, Microarray / Fold-change relative to control, HMGCS1, Microarray / Fold-change relative to control, HSD17B7, Microarray / Fold-change relative to control, ID3, Microarray / Fold-change relative to control, NQO1, Microarray / Fold-change relative to control, S100A9, Microarray: rat liver, 35.7 mg/kg
# [7] = Lipid analysis of rat liver; type: in vivo, Sprague-Dawley rats; conditions: actein 35.7 mg/kg; 24 hours
# Method: (§2) Lipid analysis: Hepatic lipids were extracted by homogenization of the liver followed by addition of choloroform:methanol (2:1). After vortex and centrifugation for 10 min, the organic phase was collected and dried under nitrogen. The dried lipids were dissolved in 1% Triton X-100 in water and sonicated. Extracted hepatic lipids and plasma lipids were measured by cholesterol and triglyceride enzymatic assay kits from Infinity (Louisville, Colo.) according to the manufacturer's instruction. Free fatty acids were measured by Enzymatic assay using NEFA C kit from Wako Chemicals (Richmond, Va.). Tissue lipids were normalized by protein concentration.
# as §2, with “Hepatic” for “Lipid analysis: Hepatic”, “liver from the 24 h group,” for “liver”, “vortexing” for “vortex”, “Colo.),” for “Colo.)”, “instructions.” for “instruction.”
# [8] = tested on: T1, Na^+-K^+-ATPase; assay: Combination of agents on Na^+-K^+-ATPase activity, combination index; type: biochemical
# T1 construct: Combination index; actein (μM); Combination index; actein; ATPase activity; other: actein 0.8 μM alone; other: digitox
# Method: Enzymatic assay of adenosine 5′-triphosphatase. The enzymatic assay of ATPase (adenosine 5′-triphosphatase, EC 3.6.1.3) followed the Sigma Prod. […] [P] was determined by the Taussky-Shorr method.
# [9] = Homo sapiens, MDA-MB-453, read-out: percent viable cells
smiles,measurement,setting,value
CC(=O)O[C@@H]1C[C@@]23C[C@@]24CC[C@H](O[C@@H]2OC[C@@H](O)[C@H](O)[C@H]2O)C(C)(C)[C@@H]4CC[C@H]3[C@]2(C)C[C@@H]3O[C@]4(C[C@@H](C)[C@@H]3[C@@]12C)O[C@H](O)[C@@]1(C)O[C@@H]41 [actein],"Fold-change relative to control, BZRP, RT-PCR",[1]; 6 h,0.07
same,"Fold-change relative to control, CCND1, RT-PCR",[1]; 6 h,0.52
same,"Fold-change relative to control, HMGCR, RT-PCR",[1]; 6 h,−0.45
same,"Fold-change relative to control, HMGCS1, RT-PCR",[1]; 6 h,−0.82
same,"Fold-change relative to control, HSD17B7, RT-PCR",[1]; 6 h,−0.66
same,"Fold-change relative to control, ID3, RT-PCR",[1]; 6 h,0.30
same,"Fold-change relative to control, NQO1, RT-PCR",[1]; 6 h,−0.50
same,"Fold-change relative to control, S100A9, RT-PCR",[1]; 6 h,−0.36
same,"Fold-change relative to control, BZRP, RT-PCR",[1]; 24 h,1.13
same,"Fold-change relative to control, CCND1, RT-PCR",[1]; 24 h,−2.32
same,"Fold-change relative to control, HMGCR, RT-PCR",[1]; 24 h,0.45
same,"Fold-change relative to control, HMGCS1, RT-PCR",[1]; 24 h,1.44
same,"Fold-change relative to control, HSD17B7, RT-PCR",[1]; 24 h,1.21
same,"Fold-change relative to control, ID3, RT-PCR",[1]; 24 h,−1.52
same,"Fold-change relative to control, NQO1, RT-PCR",[1]; 24 h,1.73
same,"Fold-change relative to control, S100A9, RT-PCR",[1]; 24 h,2.92
same,cyclin D1 mRNA (RT-PCR),"[2]; 3 h, 20 μg/ml",0.88 fold
same,cyclin D1 mRNA (RT-PCR),"[2]; 3 h, 40 μg/ml",1 fold
same,cyclin D1 mRNA (RT-PCR),"[2]; 10 h, 20 μg/ml",1.18 fold
same,cyclin D1 mRNA (RT-PCR),"[2]; 10 h, 40 μg/ml",1.02 fold
same,cyclin D1 mRNA (RT-PCR),"[2]; 24 h, 20 μg/ml",0.98 fold
same,cyclin D1 mRNA (RT-PCR),"[2]; 24 h, 40 μg/ml",0.56 fold
same,viability at 0.2 µg/mL,[3]; [9],97.8%
same,viability at 2 µg/mL,[3]; [9],75.8%
same,viability at 5 µg/mL,[3]; [9],70.9%
same,cell survival,[3]; actein 2 ug/ml alone (simvastatin study),68.2%
same,cyclin D1 promoter activity,[4]; 20 μg/ml,0.87 fold
same,cyclin D1 promoter activity,[4]; 40 μg/ml,0.093 fold
same,p21 mRNA (RT-PCR),"[5]; 3 h, 20 μg/ml",0.92 fold
same,p21 mRNA (RT-PCR),"[5]; 3 h, 40 μg/ml",1.03 fold
same,p21 mRNA (RT-PCR),"[5]; 10 h, 20 μg/ml",1.06 fold
same,p21 mRNA (RT-PCR),"[5]; 10 h, 40 μg/ml",1.19 fold
same,p21 mRNA (RT-PCR),"[5]; 24 h, 20 μg/ml",0.92 fold
same,p21 mRNA (RT-PCR),"[5]; 24 h, 40 μg/ml",1.46 fold
same,number of genes significantly altered (B>0),[6]; 6 hours,0
same,number of genes significantly altered (B>0),[6]; 24 hours,109
same,"Fold-change relative to control, BZRP, Microarray",[6]; 6 h,−0.12
same,"Fold-change relative to control, CCND1, Microarray",[6]; 6 h,0.57
same,"Fold-change relative to control, CYP7A1, Microarray",[6]; 6 h,0.045
same,"Fold-change relative to control, HMGCR, Microarray",[6]; 6 h,−0.61
same,"Fold-change relative to control, HMGCS1, Microarray",[6]; 6 h,−0.66
same,"Fold-change relative to control, HSD17B7, Microarray",[6]; 6 h,−0.99
same,"Fold-change relative to control, ID3, Microarray",[6]; 6 h,0.19
same,"Fold-change relative to control, NQO1, Microarray",[6]; 6 h,−0.64
same,"Fold-change relative to control, S100A9, Microarray",[6]; 6 h,−0.64
same,"Fold-change relative to control, BZRP, Microarray",[6]; 24 h,1.51
same,"Fold-change relative to control, CCND1, Microarray",[6]; 24 h,−2.30
same,"Fold-change relative to control, CYP7A1, Microarray",[6]; 24 h,2.04
same,"Fold-change relative to control, HMGCR, Microarray",[6]; 24 h,1.12
same,"Fold-change relative to control, HMGCS1, Microarray",[6]; 24 h,1.11
same,"Fold-change relative to control, HSD17B7, Microarray",[6]; 24 h,2.11
same,"Fold-change relative to control, ID3, Microarray",[6]; 24 h,−0.58
same,"Fold-change relative to control, NQO1, Microarray",[6]; 24 h,1.45
same,"Fold-change relative to control, S100A9, Microarray",[6]; 24 h,3.01
same,cholesterol level in liver vs controls,[7],0.6 fold
same,free fatty acid level in liver vs controls,[7],0.6 fold
same,triglyceride content of liver vs controls,[7],no change
same,ATPase activity,[8]; actein 0.8 μM alone,95.1%
C[C@H]1O[C@@H](O[C@H]2[C@@H](O)C[C@H](O[C@H]3[C@@H](O)C[C@H](O[C@H]4CC[C@@]5(C)[C@H](CC[C@@H]6[C@@H]5CC[C@]5(C)[C@@H](C7=CC(=O)OC7)CC[C@]65O)C4)O[C@@H]3C)O[C@@H]2C)C[C@H](O)[C@@H]1O [digitoxin],viability at 0.01 µg/mL,"[3]; Homo sapiens, MDA-MB-453, read-out: percent viable cells, digitoxin 0.01 μg/ml alone (actein study)",62.8%
same,viability at 0.01 µg/mL,"[3]; Homo sapiens, MDA-MB-453, read-out: percent viable cells, digitoxin 0.01 μg/ml alone (paclitaxel study)",73%
same,ATPase activity,[8]; digitoxin 0.2 μM alone,87.8%
same,ATPase activity,[8]; digitoxin 0.8 μM alone,53.6%
